Results: PMC8443589, “Modelling human liver fibrosis in the context of non-alcoholic steatohepatitis using a microphysiological system” (Communications Biology, 2021)
Where “and” joins values, the source holds several entries; their conditions need not be identical. Equal entries are not always repeated.

System: liver MPS NASH model (PHH, KC and HSC co-cultures, high fat)
Experiment: Quantitative confocal imaging of collagen type 1 and alpha SMA in liver MPS NASH model dosed with OCA or ELF
Type: cell-based, human
Settings: for Collagen type 1 fluroscent marker intensity: per MPS scaffold; for reduction of collagen-1 deposition / reduction of α-SMA expression: fat only NASH model, 10 days; for reduction of α-SMA expression: concentration-dependent
Procedure: Fig. 3 Obeticholic acid and Elafibranor both modulate inflammatory and fibrosis phenotype in liver MPS NASH model and phenotype can additionally be reversed with dietary changes. PHH, KC and HSC co-cultures were cultured in the MPS platform under high fat conditions and dosed with varying concentrations of Obeticholic acid (OCA) and Elafibranor (ELF) QD or vehicle control (control) for 10 days, following an initial 4-day pre-culture phase. a The secreted cytokine profile from liver microtissues was compared by Luminex to determine the effects of each compound on the inflammatory profile of the liver with samples analysed at day 8 and 14 of the culture. Data were normalised by Z-transformation to allow comparison of all analytes and presented as a heatmap. b The expression of fibrosis-associated genes was analysed in total RNA from control, OCA and ELF treated liver microtissues (highest concentration for each compound) using Human Fibrosis RT2 Profiler PCR Arrays. Gene expression changes are expressed as a fold change over control. c Liver microtissues were stained for collagen-type I, α-SMA, nuclei (DAPI - blue), phalloidin (green) and imaged by confocal microscopy. Representative images are shown and scale bars 200 µm. d Staining of microtissue was quantified by measuring total fluorescence intensity throughout individual microtissues, each data point represents an average of all the microtissues imaged within an MPS scaffold (min 8, max 20 microtissues). e PHH, KC and HSC co-cultures were cultured in the MPS platform under high fat or lean conditions for 30 days. Cultures either remained in the same type of media throughout or were switched at day 15 from fat media to lean media (Fat -> Lean). Cell culture medium samples were analysed for the presence of IL-6, f MCP-1, g TIMP-1, which were measured by ELISA. h Microtissues were stained with Oil-Red O to determine fat loading during culture period, total stain was quantified by absorbance at 510 nm. All datapoints shown, either as box-whisker plots highlighting mean and min-max or with error bars highlighting means ± SD. All data from a minimum of three independent cultures; statistical comparisons made to control samples unless other comparison shown.
To visualise fibrosis proteins in the liver microtissues, scaffolds were fixed for 15 min in 4% paraformaldehyde following culture in the MPS platform. They were permeabilized with 0.1% Triton-X and blocked with 2% BSA before staining overnight at 4 °C with antibodies against alpha SMA (Abcam, UK - ab7817) and collagen 1 (Rockland, USA—600 401 103 0.5). Scaffolds were then stained with fluorescently conjugated secondary antibodies (Alexa-Fluor 555 goat anti-rabbit #A21429; Alexa-Fluor 647 donkey anti-rabbit #A31573; Alexa-Fluor 555 goat anti-mouse #A21424; Alexa-Fluor 647 goat anti-mouse #A21235 (Thermofisher, UK) along with Phalloidin 488 (Thermofisher, UK) and Hoechst 33342 (Invitrogen) for 1.5 h at room temperature. Scaffolds were washed three times with PBS and mounted onto glass microscope slides with anti-fade mounting medium. Confocal fluorescent images of the stained scaffolds were captured using a Cell Voyager 7000 (CV700, Yokogawa Inc.) automated confocal microscope. Image acquisition was controlled using the SearchFirst functionality of the Wako Software suite (Fujifilm Wako Automation). A workflow was designed to automatically locate and acquire images of each scaffold in a consistent and unbiased manner (Supp. Fig. 1). The workflow consisted of a first round of acquisition where the entire slide is imaged at low (4×) magnification capturing the Hoechst channel only. Images were automatically stitched together using a MATLAB script and eight regions of interest (ROI) were identified on each scaffold (same array of ROI per scaffold). XY coordinates were fed back to the microscope which subsequently imaged each ROI with full Z stacks obtained at ×10 magnification, 120 µm stack with a 5 µm slice interval. […]

| SMILES | Collagen type 1 fluroscent marker intensity (ELF 13 uM QD 10 days, listed as ELF) | reduction of collagen-1 deposition | reduction of α-SMA expression | Collagen type 1 fluroscent marker intensity (OCA 0.25 uM QD 10 days, listed as OCA) | Collagen type 1 fluroscent marker intensity (OCA 5 uM QD 10 days, listed as OCA) |
| --- | --- | --- | --- | --- | --- |
| CSc1ccc(C(=O)/C=C/c2cc(C)c(OC(C)(C)C(=O)O)c(C)c2)cc1 [Elafibranor] | 1659.63 and 1182.93 and 1579.82 and 1137.61 and 1507.1 | up to 35% | up to 50% |  |  |
| CC[C@H]1[C@@H](O)[C@@H]2[C@H](CC[C@]3(C)[C@@H]([C@H](C)CCC(=O)O)CC[C@@H]23)[C@@]2(C)CC[C@@H](O)C[C@@H]12 [Obeticholic acid] |  | up to 35% | up to 50% | 2993.61 and 2644.36 and 2590.02 and 1579.53 | 1471.67 and 1379.09 and 1471.56 and 1817.03 and 1176.35 and 1231.08 |
